# Source: patent US20060034781A1, “PERORAL PREPARATION FOR PREVENTION OR TREATMENT OF ATOPIC DERMATATIS” (Kyowa Hakko Kogyo Co., Ltd., priority 2002, published 2006)
# Tests used:
# Assay type in all cases: in vivo
# Settings in all cases: oral, in feed (0.25% N-acetyl-trans-4-hydroxy-L-proline or 0.5% trans-4-hydroxy-L-proline) versus control feed
# mast cells = assay: Mast cell density at auricle of atopic dermatitis model mice (Toluidine Blue staining)
# Method: (§1) For the test, NC/Nga mice (five weeks age; purchased from Charles River) were used. The breeding conditions were that the mice were bred under room temperature of 22±2° C. and humidity of 35±15% and that feed and water were freely taken by them.
# (§2) The test feed was prepared by well mixing of powdery feed CE-2 (manufactured by Nippon Claire) with 0.25% by weight of N-acetyl-trans-4-hydroxy-L-proline or 0.50% by weight of trans-4-hydroxy-L-proline. The feed containing N-acetyl-trans-4-hydroxy-L-proline was named a feed 1 while the feed containing trans-4-hydroxy-L-proline was named a feed 2 and, as a control feed, a powdery feed CE-2 was used.
# (§3) With regard to the hapten, a product prepared by dissolving 1.5% by weight of dinitrochlorobenzene (DNCB) in a solution comprising 20% by volume of olive oil and 80% by volume of acetone was used.
# (§4) Three mice were used for each of the test groups, and 20 μl of 1.5% DNCB was respectively applied onto both side of the right auricle of each of the mice after nine days, ten days, thirteen days and fourteen days from initiation of administration of the test feed.
# With regard to the model mice where atopic dermatitis appeared used in Test Example 1, tissues at auricle were frozen and embedded in Tissue-Tek O. C. T. Compound (manufactured by Sakura Seiki K. K.) on the 27th day from initiation of administration of the test feed. […]
# NC/Nga mice = assay: Suppression of auricular edema in DNCB-treated atopic dermatitis model mice
# Method: as §1, §2
# With regard to the hapten, a product prepared by dissolving 1.5% by weight of dinitrochlorobenzene (DNCB) in a solution comprising 20% by volume of olive oil and 80% by volume of acetone was used. […]
# Starting from the day when application of the hapten started, thickness of the right auricle was measured using Pescock Dial Thickness Gauge (manufactured by Ozaki Seisakusho) one daily.
# An increasing amount of auricular edema was calculated according to the following formula 1 as a relative value to an increasing amount of auricular edema of a mouse which was not treated with DNCB and the result is shown in Table 2. […]
# IgE = IgE concentration in serum of atopic dermatitis model mice (ELISA)
# Method: as §1, §2, §3, §4
# With regard to the model mice where atopic dermatitis appeared used in Test Example 1, blood was collected from right thigh on the 27th day from initiation of administration of the test feed. […]
compound,measurement,setting,value
CC(=O)N1C[C@H](O)C[C@H]1C(=O)O [N-acetyl-trans-4-hydroxy-L-proline],increase in mast cell density by application of DNCB (result in words),mast cells,apparently suppressed
same,auricular edema induced by DNCB (result in words),NC/Nga mice,apparently suppressed
same,increase in IgE concentration in serum by application of DNCB (result in words),IgE,significantly suppressed
O=C(O)[C@@H]1C[C@@H](O)CN1 [trans-4-hydroxy-L-proline],increase in mast cell density by application of DNCB (result in words),mast cells,apparently suppressed
same,auricular edema induced by DNCB (result in words),NC/Nga mice,apparently suppressed
same,increase in IgE concentration in serum by application of DNCB (result in words),IgE,significantly suppressed
